The values below come from publication PMC6155437 (Molecules : A Journal of Synthetic Chemistry and Natural …, 2017).

What all share (type): in vitro ADME
One series deals with T1, CYP2C19 (Homo sapiens, UniProt P33261).
T1 construct: pooled human liver microsomes (0.2 mg/mL); tissue Corning Life Sciences; host or cells: pooled human liver microsomes (150 donors)
As to the kind of experiment: CYP2C19 [S]-mephenytoin 4′-hydroxylase inhibition in human liver microsomes. Conditions: at 50 µM. The procedure:
(§1) After a 3-min pre-incubation at 37 °C, the reactions were initiated by addition of NADPH and incubation proceeded for 15 min at 37 °C in a shaking water bath. […] The incubation mixtures were centrifuged (13,000× g, 4 min, 4 °C). All assays were performed in triplicate and mean values were used in calculations.
(§2) Each reaction was initiated by adding the seven-CYP probe substrate cocktail.
(§3) The metabolites formed from CYP substrates were quantified simultaneously by a LC-MS/MS method described previously. The ESI source settings in positive-ion mode for metabolite ionization were: capillary voltage, 4200 V; vaporizer temperature, 350 °C; capillary temperature, 330 °C; sheath gas pressure, 35 psi; and auxiliary gas pressure, 15 psi. […] Analytical data were processed using Xcalibur software (version 2.1, Thermo Scientific).
(§4) The apparent kinetic parameters for inhibitory potential (Ki and kinact values) and inhibition mode were estimated from the fitted curves using the Enzyme Kinetics program (ver. 1.1; Systat Software Inc., San Jose, CA, USA).

The next series addresses T2, CYP2D6 (Homo sapiens, UniProt P10635).
T2 construct: pooled human liver microsomes (0.2 mg/mL); tissue Corning Life Sciences; host or cells: pooled human liver microsomes (150 donors)
As to the kind of experiment: CYP2D6 bufuralol 1′-hydroxylase inhibition in human liver microsomes. Conditions: at 50 µM. As for the experimental part:
as §1, §2, §3, §4

In a further series the target is T3, UGT1A3 (Homo sapiens, UniProt P35503).
T3 construct: tissue Corning Life Sciences; host or cells: pooled human liver microsomes (150 donors)
T3 sequence (P35503 29-534): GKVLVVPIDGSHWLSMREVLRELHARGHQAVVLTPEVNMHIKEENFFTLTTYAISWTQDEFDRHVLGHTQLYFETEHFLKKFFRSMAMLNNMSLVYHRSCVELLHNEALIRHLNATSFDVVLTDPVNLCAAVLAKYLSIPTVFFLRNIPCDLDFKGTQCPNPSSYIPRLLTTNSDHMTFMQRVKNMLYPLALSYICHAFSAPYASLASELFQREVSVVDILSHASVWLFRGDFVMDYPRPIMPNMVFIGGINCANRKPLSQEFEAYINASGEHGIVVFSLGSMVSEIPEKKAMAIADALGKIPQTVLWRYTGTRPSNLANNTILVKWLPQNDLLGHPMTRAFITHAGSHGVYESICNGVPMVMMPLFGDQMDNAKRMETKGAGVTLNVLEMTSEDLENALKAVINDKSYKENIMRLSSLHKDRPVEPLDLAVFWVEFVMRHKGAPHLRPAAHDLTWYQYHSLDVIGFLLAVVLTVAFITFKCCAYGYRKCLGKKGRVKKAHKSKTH
As to the kind of experiment: UGT1A3 chenodeoxycholic acid 24-acyl-glucuronidation inhibition in human liver microsomes. The procedure: (§5) After 3 min of pre-incubation at 37 °C, the reactions were initiated by addition of UDPGA; incubation continued for 60 min at 37 °C in a shaking water bath. The reaction was stopped by placing the tubes on ice and adding 50 µL ice-cold acetonitrile containing internal standards (propofol glucuronide for chenodeoxycholic acid 24-acyl-β-glucuronide and mycophenolic acid glucuronide, and meloxicam for SN-38 glucuronide, trifluoperazine glucuronide, N-acetylserotonin β-D-glucuronide, and naloxone 3-β-D-glucuronide). The incubation mixtures were centrifuged (13,000× g, 4 min, 4 °C). All assays were performed in triplicate and average values were used in calculations.
(§6) The reactions were initiated by addition of UDPGA at 37 °C and stopped after 60 min by placing the incubation tubes on ice and adding 100 μL of ice-cold methanol containing propofol glucuronide (internal standard for UGT1A3) or meloxicam (internal standard for UGT2B7). The incubation mixtures were centrifuged (13,000× g, 4 min, 4 °C), and then, 50 μL of the supernatant was diluted with 50 μL of water. Aliquots (5 μL) of the diluted supernatants were analyzed by LC-MS/MS.
(§7) The metabolites formed from the six UGT cocktail substrates were measured simultaneously using the LC-MS/MS method. The ESI source settings in both positive- and negative-ion modes for metabolite ionization were: capillary voltage, 4200 V; vaporizer temperature, 350 °C; capillary temperature, 330 °C; sheath gas pressure, 35 psi; and auxiliary gas pressure, 15 psi. […] Data were processed using Xcalibur software.
as §4

For another series, the target named is T4, UGT1A4 (Homo sapiens, UniProt P22310).
T4 construct: pooled human liver microsomes (0.2 mg/mL), 5 mM UDPGA; tissue Corning Life Sciences; host or cells: pooled human liver microsomes (150 donors)
T4 sequence (P22310 29-534): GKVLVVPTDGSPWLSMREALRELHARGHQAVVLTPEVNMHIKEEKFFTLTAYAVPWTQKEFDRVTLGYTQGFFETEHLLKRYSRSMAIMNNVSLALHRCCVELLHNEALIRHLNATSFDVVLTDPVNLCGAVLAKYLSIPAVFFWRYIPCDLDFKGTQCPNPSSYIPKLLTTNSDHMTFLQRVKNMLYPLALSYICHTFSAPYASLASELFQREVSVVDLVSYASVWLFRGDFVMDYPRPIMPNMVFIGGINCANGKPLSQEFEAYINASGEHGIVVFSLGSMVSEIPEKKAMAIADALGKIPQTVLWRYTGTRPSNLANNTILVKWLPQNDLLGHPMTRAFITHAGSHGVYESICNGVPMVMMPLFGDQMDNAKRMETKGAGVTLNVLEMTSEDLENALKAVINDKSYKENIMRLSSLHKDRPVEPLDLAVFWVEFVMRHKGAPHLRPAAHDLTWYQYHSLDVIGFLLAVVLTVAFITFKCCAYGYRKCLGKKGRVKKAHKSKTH
In words: UGT1A4 trifluoperazine N-glucuronidation inhibition in human liver microsomes. Conditions: at 50 µM. The procedure:
as §5, §7, §4

For another series, the target named is T5, UGT2B7 (Homo sapiens, UniProt P16662).
T5 construct: tissue Corning Life Sciences; host or cells: pooled human liver microsomes (150 donors)
T5 sequence (P16662 24-529): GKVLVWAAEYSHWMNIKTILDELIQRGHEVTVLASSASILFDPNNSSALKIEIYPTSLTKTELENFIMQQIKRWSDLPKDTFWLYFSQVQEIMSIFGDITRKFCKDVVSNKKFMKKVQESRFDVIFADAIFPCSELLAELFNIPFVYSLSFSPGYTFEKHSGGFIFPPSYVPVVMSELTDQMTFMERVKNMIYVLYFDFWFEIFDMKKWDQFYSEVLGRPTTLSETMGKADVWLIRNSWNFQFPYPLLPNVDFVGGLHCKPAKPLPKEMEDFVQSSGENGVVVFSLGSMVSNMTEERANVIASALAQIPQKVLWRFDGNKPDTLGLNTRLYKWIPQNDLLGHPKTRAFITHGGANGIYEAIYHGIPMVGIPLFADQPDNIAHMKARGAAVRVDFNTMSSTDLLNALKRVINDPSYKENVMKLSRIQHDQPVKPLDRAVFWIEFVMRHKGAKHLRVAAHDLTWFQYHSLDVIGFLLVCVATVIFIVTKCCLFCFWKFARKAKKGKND
As to the kind of experiment: UGT2B7 naloxone 3-β-D-glucuronidation inhibition in human liver microsomes. As for the experimental part: as §5, §6, §7, §4

T2 sequence (P10635 whole entry): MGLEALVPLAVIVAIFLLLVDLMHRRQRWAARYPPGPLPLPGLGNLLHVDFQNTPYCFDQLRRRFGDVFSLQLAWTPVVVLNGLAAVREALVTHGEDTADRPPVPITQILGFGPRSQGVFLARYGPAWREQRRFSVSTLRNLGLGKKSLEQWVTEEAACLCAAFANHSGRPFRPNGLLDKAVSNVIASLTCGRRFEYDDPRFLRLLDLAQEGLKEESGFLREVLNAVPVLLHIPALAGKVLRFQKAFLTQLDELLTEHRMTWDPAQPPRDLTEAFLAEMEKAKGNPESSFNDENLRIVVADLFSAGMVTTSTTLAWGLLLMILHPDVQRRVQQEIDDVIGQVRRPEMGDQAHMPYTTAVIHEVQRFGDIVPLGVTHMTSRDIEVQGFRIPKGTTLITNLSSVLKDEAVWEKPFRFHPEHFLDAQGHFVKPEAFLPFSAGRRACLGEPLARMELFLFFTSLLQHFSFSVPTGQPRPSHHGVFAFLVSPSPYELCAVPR
T1 sequence (P33261 whole entry): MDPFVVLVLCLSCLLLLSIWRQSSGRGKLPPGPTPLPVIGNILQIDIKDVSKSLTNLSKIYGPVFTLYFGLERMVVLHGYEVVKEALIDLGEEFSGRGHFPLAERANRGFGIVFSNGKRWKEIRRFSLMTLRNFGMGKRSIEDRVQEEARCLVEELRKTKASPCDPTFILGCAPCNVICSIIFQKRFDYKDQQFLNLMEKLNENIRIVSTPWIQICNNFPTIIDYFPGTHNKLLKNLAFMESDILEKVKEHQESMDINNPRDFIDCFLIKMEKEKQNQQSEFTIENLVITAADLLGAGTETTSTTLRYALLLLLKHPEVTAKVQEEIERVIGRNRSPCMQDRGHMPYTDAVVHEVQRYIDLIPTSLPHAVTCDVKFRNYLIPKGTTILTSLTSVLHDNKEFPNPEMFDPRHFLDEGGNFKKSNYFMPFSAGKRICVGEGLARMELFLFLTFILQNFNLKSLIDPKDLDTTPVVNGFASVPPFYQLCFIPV

With `O=C(c1cccc2ccccc12)c1cn(CCCCCF)c2ccccc12` [AM-2201, 1-(5-fluoropentyl-1H-indol-3-yl)-(naphthalene-1-yl)methanone], the “inhibition of CYP2C19-mediated [S]-mephenytoin 4′-hydroxylation” value on CYP2C19 is recorded as “negligibly inhibited”. For the same molecule, the “inhibition of CYP2D6-mediated bufuralol 1′-hydroxylation” value against CYP2D6 was “negligibly inhibited”. Further, the Ki came out at 4.3 µM at UGT1A3 and 10 µM on UGT2B7. Also, the IC50 against UGT1A3 (IC50, UGT1A3-catalyzed chenodeoxycholic acid 24-acyl-glucuronidation, abstract) is 4.3 µM; at UGT1A3 (IC50, UGT1A3 chenodeoxycholic acid 24-acyl-glucuronidation, 2 μM chenodeoxycholic acid, human liver microsomes), 6.4 µM; against UGT2B7 (IC50, UGT2B7-catalyzed naloxone 3-glucuronidation, abstract), 10 µM; against UGT2B7 (IC50, UGT2B7 naloxone 3-β-D-glucuronidation, 1 μM naloxone, human liver microsomes), 14.5 µM. Besides, the Inhibition Mode entry at UGT1A3 (UGT1A3 chenodeoxycholic acid 24-acyl-glucuronidation) was “competitively inhibited”; on UGT2B7 (UGT2B7 naloxone 3-β-D-glucuronidation) it was “mixed inhibition”. In addition, the “inhibition of UGT1A4-catalyzed trifluoperazine N-glucuronidation” value against UGT1A4 is given as “negligibly inhibited”.
